Experiment: gradient 5% acetonitrile 3 min, to 50% in 2 min, to 85% in 15 min, held 3 min, 100 µL/min
Conditions: column: Zorbax Extend-C18 2.1 x 50 mm; eluents: water / acetonitrile, 0.1% formic acid
Method in brief: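 Standards, all pure, were combined into mixtures of ~100 molecules and run at 100 μL/min on a Zorbax Extend-C18 column (2.1 × 50 mm, 1.8 μm) with water and acetonitrile, each containing 0.1% formic acid. A coupled quadrupole time-of-flight mass spectrometer operated in positive and negative ionization mode. Retention time values come from computationally picked adduct peaks, each inspected manually.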

| RP-LC retention time [s] | Compound |
| --- | --- |
| 824 | COc1cc(-c2noc(-c3nn(-c4cccc(F)c4)ccc3=O)n2)cc(OC)c1OC |
| 840 | Cn1nc(-c2nc(C3CC3)no2)c2c1CCN(C(=O)Nc1cccc(F)c1)C2 |
| 828 | Cc1cc(C)n2c(Nc3ccc(C(C)C)cc3)c(-c3ccccc3)nc2n1 |
| 1050 | O=c1n(Cc2cc(F)cc(F)c2)nc2c(-c3nc(-c4cccc(F)c4)no3)cccn12 |
| 1110 | Fc1ccc(-c2nnc(Cc3nc(-c4ccc(Br)cc4)no3)o2)cc1 |
| 940 | CC(C)c1cc(Oc2c(Br)cc(NC(=O)CC(=O)O)cc2Br)ccc1O |
| 849 | Cc1cccc(-c2noc(C3CCCN3S(=O)(=O)c3c(C)c(C)cc(C)c3C)n2)c1 (stereo not drawn) |
| 809 | CC1CS(=O)(=O)N(c2ccc(C(=O)NCCc3c[nH]c4ccccc34)c(Cl)c2)C1=O (stereo not drawn) |
| 1100 | CCOc1ccccc1NC(=O)N1CCCC1c1nc(-c2ccc(F)cc2F)no1 (stereo not drawn) |
| 592 | COc1ccc(CN2C[C@@H](CO)[C@H](c3ccncc3)C2)cc1OC |
| 975 | CC(C)C(=O)Nc1cnc(-c2cccc(Cl)c2)nc1 |
| 980 | CC(=O)N1CCC(C(=O)Nc2ccsc2-c2nc(-c3ccccc3)no2)CC1 |
| 823 | CCN(CC)c1nc2ccsc2c(=O)n1CCC(=O)NCc1ccccc1F |
| 949 | COc1ccc(Nc2nc(-c3nnn(-c4cc(F)ccc4F)c3C)ns2)cc1 |
| 931 | CCOCCCNC(=O)c1c2c(cn(-c3ccc(Cl)cc3)c1=O)C(=O)CC(C)(C)C2 |
| 891 | CC(C)Cn1c(=O)c2cc(C(=O)N(C)CC(=O)N3CCCCCC3)nn2c2ccccc21 |
| 1110 | COc1ccccc1C(=O)Nc1nc(-c2ccccc2)cs1 |
| 754 | Cc1sc(NC(=O)c2cccnc2)nc1-c1ccc2c(c1)N(C)C(=O)CO2 |
| 658 | COc1ccc(C(C)NC(=O)c2nc(N(C)C)c3c(C)cc(C)nc3n2)cc1 (stereo not drawn) |
| 856 | COc1ccc(OC)c(NC(=O)N2CCC3(CC2)N=C(c2cccc(F)c2)C(=O)N3)c1 |
| 993 | CCn1nnc2cc(-c3noc(-c4cc(OC)c(OC)c(OC)c4)n3)ccc21 |
| 794 | COc1ccc(NS(=O)(=O)c2cc(-c3nc(C)c(C(=O)N4CCCC4)s3)n(C)c2)c(OC)c1 |
| 844 | Cc1noc(-c2cccc(OC3CN(C(=O)Nc4ccccc4)C3)c2)n1 |

| RP-LC retention time [s] | Compound |
| --- | --- |
| 676 | COc1ccc(OCc2ccc(-c3nc(C#N)c(NCCN(C)C)o3)o2)cc1 |
| 829 | CCCN1C(=O)Cc2cc(C(=O)NCc3ccc(SC)cc3)ccc21 |
| 639 | Cc1cc(C)c2c(N3CCOCC3)nc(C(=O)NCc3cccc(F)c3)nc2n1 |
| 1110 | CCc1ccc(Oc2cc(N3CCC(C(=O)NC4CCCCCC4)CC3)ncn2)cc1 |
| 783 | COc1ccc(OCC(=O)Nc2nc(C)cc(C)c2-c2noc(C)n2)cc1 |
| 879 | CCOC(=O)c1[nH]c(C)c(C(=O)C(C)N(C(=O)c2cccc(OC)c2)C2CC2)c1C (stereo not drawn) |
| 1070 | CCOc1ccc(-n2c(=O)c3sccc3n(Cc3nc(-c4ccccc4C)no3)c2=O)cc1 |
| 824 | Cc1cc(C)n2nc(SCC(=O)N(c3ccccc3)c3ccccc3)nc2n1 |
| 560 | OC[C@@H]1CN(Cc2ccncc2F)C[C@H]1c1nc(-c2cccnc2)no1 |
| 940 | C=CCn1c(=O)c2ccccc2n(Cc2nc(-c3ccccc3OC)no2)c1=O |
| 686 | COc1ccc(-c2cc3c4nnc(CCC(=O)N5CCCC5)n4ccn3n2)cc1 |
| 852 | Cc1nnc(-c2ccc3ccn(CC(=O)N4CCc5ccccc54)c3c2)o1 |
| 1180 | CC(C)(C)c1csc(-c2csc(S(=O)(=O)Nc3ccccc3)c2)n1 |
| 936 | CCc1csc(-c2ccc(N3CCN(C(=O)c4ccc(OC)c(F)c4)CC3)nc2)n1 |
| 956 | COc1ccccc1CCC(=O)NC1(c2nc(-c3cccnc3)no2)CCCCC1 |
| 1300 | Cc1ccc(C2Cn3nnc(-c4nc(-c5ccc(F)cc5)no4)c3CO2)c(C)c1 (stereo not drawn) |
| 682 | Cc1sc2nc(SCC(=O)Nc3ccc(S(N)(=O)=O)cc3)nc(N)c2c1C |
| 966 | CCOc1ccccc1-c1noc(Cn2c(=O)n(CC3CCCO3)c(=O)c3ccccc32)n1 (stereo not drawn) |
| 1050 | Cc1ccc(NC(=O)CSc2cc(N3CCCCC3)ncn2)cc1Cl |
| 831 | Cc1ccc(-n2nc(N3CCN(C(=O)CC(C)C)CC3)ccc2=O)cc1C |
| 685 | CCc1nnc2c(=O)n(CC(=O)NCc3ccccc3F)c3cccnc3n12 |
| 814 | CCCn1ccc2oc(C)c(C(=O)NCc3ccc(Cl)cc3)c2c1=O |
| 905 | COCc1cc2nn(CC(=O)Nc3cccc(C)c3)c(=O)n2c(-c2ccccc2)n1 |

Further lines, the molecule ahead of its results:

| Compound | RP-LC retention time [s] |
| --- | --- |
| O=C(Cn1nc2nc(Nc3ccc(F)cc3)ccn2c1=O)N1CCOCC1 | 631 |
| Cc1cc(C)n(CCNC(=O)C2(c3cccs3)CCCC2)n1 | 736 |
| Cc1ccc(-n2nc(N3CCN(C(=O)Nc4ccc(Cl)cc4)CC3)ccc2=O)cc1 | 894 |
| O=C(NC1CCCC1)C1CCc2sc(C(=O)N3CCCC3)cc2C1 (stereo not drawn) | 777 |
| CCOC(=O)c1c(C)[nH]c(CCC(=O)NCCN2CCCCC2)c1C | 607 |
| COc1ccc(N2CC(C(=O)NC(C(=O)N3CCCc4ccccc43)c3ccccc3)CC2=O)cc1 (stereo not drawn) | 900 |
| Cc1oc2ncnc(N3CCOCC3)c2c1C(=O)N1CCN(c2ccccn2)CC1 | 567 |
| O=C(NCCCN1CCc2ccccc2C1)c1sc2ncccc2c1-n1cccc1 | 679 |
| O=C(NCCc1csc(-c2cccc(F)c2)n1)C1CCCC1 | 832 |
| CCCNc1cc(N2CCCC(CCC(=O)N3CCC(COC)CC3)C2)ncn1 (stereo not drawn) | 649 |
| CC(C)NC(=O)c1ccc(OCC2CCN(C(=O)c3ccc(F)cc3Cl)CC2)cc1 | 888 |
| O=C(CS(=O)Cc1cnn(-c2ccccc2)c1-n1cccc1)NCc1cccc(Br)c1 (stereo not drawn) | 830 |
| O=C(NC1CC1)c1ccnc(N2CCNC(c3ccccc3)C2)c1 (stereo not drawn) | 583 |
| CS(=O)(=O)Nc1ccc(C2(C(=O)NCc3ccc(F)cc3Cl)CCC2)cc1 | 847 |
| O=C(O)c1cccc2c1CCN2C(=O)Nc1ccc(F)cc1 | 782 |
| CCS(=O)(=O)N1CC(=O)N(c2cc(Cl)ccc2C)C(C)(C(=O)NC2CCCCC2)C1 (stereo not drawn) | 955 |
| Cc1nc2cccnc2n1CCN1CCN(C(=O)Nc2ccc(Br)cc2)CC1 | 619 |
| CC(C)n1cnc(S(=O)(=O)N2CCC(C(=O)NCc3ccc(Br)cc3)CC2)c1 | 782 |
| NS(=O)(=O)c1ccc(NC(=O)CN2C(=O)S/C(=C\C=C\c3ccccc3)C2=O)cc1 | 808 |
| Cc1cnn(CCC(=O)N2CCCn3ccnc3C2C2CCCC2)c1 (stereo not drawn) | 611 |
| CS(=O)(=O)N1CCC(C(=O)NCC(O)c2ccc(C(F)(F)F)cc2)CC1 (stereo not drawn) | 652 |

| Compound | RP-LC retention time [s] |
| --- | --- |
| O=C(c1c(F)cccc1F)N1CCN(c2nc(CN3CCOCC3)cs2)CC1 | 608 |
| CCCNC(=O)C1CCCN(c2ccc(SCC(=O)Nc3ccc(C(=O)OC)cc3)nn2)C1 (stereo not drawn) | 672 |
| COC(=O)C(C)N1CN(c2ccc(C)cc2)c2ncccc2S1(=O)=O (stereo not drawn) | 918 |
| CCn1c(N2CCC(C(=O)N3CCC(N4CCCCC4)CC3)CC2)cc(=O)n(C)c1=O | 600 |
| CCCCC(C(=O)O)C(C)CC(=O)Nc1nc(-c2ccccc2)cs1 (stereo not drawn) | 982 |
| O=C(NCCc1c[nH]c2ccccc12)c1cccc(N2C(=O)CCS2(=O)=O)c1 | 749 |
| Cn1ncc2c3ccccc3n(CCCC(=O)N3CCc4ccccc4C3)c2c1=O | 931 |
| O=C(CN1CCN(Cc2ccccc2)C1=O)NCc1ccccc1Br | 824 |
| O=C1COc2ccc(S(=O)(=O)N3CCC(C(=O)N4CCOCC4)CC3)cc2N1 | 620 |
| COCCN(CC(=O)N1CCc2sccc2C1COc1cccc(F)c1)C(=O)CC(C)C (stereo not drawn) | 976 |
| Cc1ncc2c(n1)CCCN(CC(=O)NCC1CC1)C2=O | 582 |
| O=C(Cn1ncc2c(c1=O)N(CC1CC1)C(=O)CS2)Nc1cccc(C(F)(F)F)c1 | 869 |
| Cc1cc(N2CCOCC2)nc(N2CCN(C(=O)CCC3CCCCC3)CC2)n1 | 714 |
| CSc1ccc(CNC(=O)C2CCN(c3nnc(-c4ccccc4)o3)CC2)cc1 | 846 |
| O=C(Nc1ccccc1F)C1CCc2nc(N3CCCCC3)ncc2C1 (stereo not drawn) | 772 |
| CC1CCCN(CC2CCN(S(=O)(=O)Cc3ccccc3Cl)CC2)C1 (stereo not drawn) | 662 |
| CCCCNC(=O)CN1C(=O)CC(c2cccs2)=Nc2ccccc21 | 835 |
| CCS(=O)(=O)N1CCCc2cc(C(=O)NC)ccc21 | 657 |
| O=C(NCc1ccco1)C1CCN(c2nc3cccnc3s2)CC1 | 683 |
| CS(=O)(=O)c1ccccc1C(=O)Nc1ccc2sccc2c1 | 757 |
| O=C1COc2cc(S(=O)(=O)N3CCCC3C(=O)N3CCOCC3)c(Cl)cc2N1 (stereo not drawn) | 628 |

Reference: the METLIN SMRT retention time set (Domingo-Almenara et al. 2019)
